# Measurements published in US20250257077A1, “BRIDGED BICYCLIC HETEROCYCLOALKYL PYRIDO-[3,4-d]PYRIDAZINE AMINE DERIVATIVES USEFUL AS NLRP3 INHIBITORS” (Ventus Therapeutics U.S., Inc., priority 2022, published 2025).
# Read-outs that look alike come from different tables or passages of the source.
# Legend:
# [1] = biological target: T1, human NLRP3 (Homo sapiens, UniProt Q96P20); test: Human Whole Blood (hWB) NLRP3 Assay; format: cell-based; conditions: LPS priming, ATP activation, IL-1β levels
# T1 construct: Human whole blood is drawn from healthy volunteers after obtaining written informed consent; from tissue
# T1 sequence (Q96P20 whole entry): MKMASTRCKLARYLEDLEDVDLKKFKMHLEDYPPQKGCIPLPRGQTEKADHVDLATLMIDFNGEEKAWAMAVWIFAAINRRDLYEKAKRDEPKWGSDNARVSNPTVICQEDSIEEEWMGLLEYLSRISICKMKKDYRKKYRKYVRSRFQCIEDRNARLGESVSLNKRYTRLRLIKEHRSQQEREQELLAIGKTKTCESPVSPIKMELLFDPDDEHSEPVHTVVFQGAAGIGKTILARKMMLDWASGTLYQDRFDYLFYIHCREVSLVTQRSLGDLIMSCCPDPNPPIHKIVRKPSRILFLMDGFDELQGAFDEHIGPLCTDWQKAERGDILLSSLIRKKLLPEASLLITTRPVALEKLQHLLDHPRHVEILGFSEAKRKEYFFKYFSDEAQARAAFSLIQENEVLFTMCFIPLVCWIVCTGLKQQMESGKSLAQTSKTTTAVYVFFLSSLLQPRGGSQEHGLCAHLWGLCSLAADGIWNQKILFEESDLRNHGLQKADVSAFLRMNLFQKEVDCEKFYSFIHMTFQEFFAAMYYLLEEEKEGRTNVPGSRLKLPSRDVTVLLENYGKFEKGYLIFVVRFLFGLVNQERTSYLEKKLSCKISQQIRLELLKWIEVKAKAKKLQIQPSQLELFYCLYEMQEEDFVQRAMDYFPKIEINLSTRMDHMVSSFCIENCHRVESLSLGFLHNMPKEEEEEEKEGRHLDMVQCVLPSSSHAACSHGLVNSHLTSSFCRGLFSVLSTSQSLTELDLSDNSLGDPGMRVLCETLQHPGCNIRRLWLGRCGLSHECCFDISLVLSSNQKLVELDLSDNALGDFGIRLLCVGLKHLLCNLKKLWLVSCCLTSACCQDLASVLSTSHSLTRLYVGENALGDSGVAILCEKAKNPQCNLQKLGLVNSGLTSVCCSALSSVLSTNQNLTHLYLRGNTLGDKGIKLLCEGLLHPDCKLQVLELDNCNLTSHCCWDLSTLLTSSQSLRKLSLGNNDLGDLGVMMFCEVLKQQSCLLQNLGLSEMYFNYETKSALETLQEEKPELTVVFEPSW
# Method: (ii) Human Whole Blood (hWB) NLRP3 Assay
# Human whole blood is drawn from healthy volunteers after obtaining written informed consent. Heparin lithium coated tubes are used to collect blood from volunteers. Blood samples are distributed on 96 well plates using 90 μl per well. Priming is performed by adding 5 μl of LPS (026: B6; Sigma L-2654) at a final concentration of 1 μg/ml for 4.5 hours in a humidified incubator with 37° C. 5% CO2. Thirty minutes prior to NLRP3 activation, 5 μl of a 20× compound solution or vehicle (2% dimethylsulfoxide (DMSO)) is added to each well and plates were incubated on a shaker (450 rpm) in a humidified incubator with 37° C., 5% CO2. Activation is then performed by adding 3.3 μl of a 31× ATP solution per well. At the end of the 30 minutes stimulation, the plates are centrifuged (800 g, 10 min, room temperature) and the plasma from each well is frozen at −80° C. IL-1β levels in the supernatant were analyzed using a mesoscale discovery assay (MSD K151TUK) according to the manufacturers’ instructions.
# [2] = Mouse Hepatocyte Stability Assay; format: in vitro ADME; conditions: mouse hepatocytes, 37° C.; read-out: Hep (mouse) (t½ min)
# Method: (§1) (v) Mouse and Human Hepatocyte Stability Assays
# (§2) A hepatocyte stability assay is a laboratory-based method used to determine the metabolic stability of a compound in hepatocytes (liver cells). This assay provides valuable information about how quickly a drug is metabolized in the liver and can be used to assess its potential effectiveness and safety in drug discovery.
# (§3) In the assay, cither human or mouse hepatocytes are incubated with the test compound at a controlled temperature of 37° C., for different time periods (e.g., 5, 15, 30, 60, and 120 minutes). At each time point during the incubation, samples are taken, the reaction is terminated, and the amount of test compound remaining analyzed using LC-MS/MS to monitor the disappearance of the test compound over time (Gradient). […] See, e.g., Coe et al., Methods in Pharmacology & Toxicology (2008) 151.
# [3] = Brain Levels (Kp and Kpu,u); format: in vivo, CDI mice; conditions: for Kp at 24 h: mice dosed at 20 mpk PO, whole brain AUC over 24 h divided by plasma AUC; for Kp: oral, 20 mpk
# Method: (iv) Brain Levels (Kp and Kpu,u)—NLRP3
# The in vivo total brain to plasma ratio was assessed in CDI mice after oral administration of the compound. Blood was collected at several timepoints up to 24 h, and transferred into plastic micro centrifuge tubes with EDTA-K2 as anticoagulant. Blood samples were centrifuged at 4000 g for 5 minutes at 4° C., to obtain plasma, then immediately frozen and stored at −75±15° C., prior to analysis. Animals were terminally anaesthetized with a rising concentration of CO2 gas at about 1 minute. At selected timepoints, whole brains were removed from the skull, rinsed in cold PBS to remove blood, dried with clean gauze, then frozen in liquid nitrogen and kept at −75±15° C. before analysis. At the time of analysis, brain samples were homogenized with PBS by tissue weight (g) to PBS volume (mL) ratio 1:3.
# Plasma and brain drug levels were quantified by LC/MS/MS on an AB Sciex Triple Quad 5500+instrument, after separation on a HALO 160 A ES-C18, 2.7 μm 2.1×50 mm column. Quantitation was performed using a calibration curve prepared in blank plasma or blank brain homogenate. The software WinNonlin (Phoenix™) was used for pharmacokinetic analysis from the concentrations versus time data, including the AUCinf and AUClast. The Kp ratio (total brain concentration over total plasma concentration) was calculated as (AUCtot,br)/(AUCtot,pl).
# The unbound brain exposure was assessed as Kpuu, which is the free brain/free plasma concentration ratio (Cu,bt/Cu,pl). The Cu,br/Cu,pl ratios were obtained from in vivo total brain to plasma ratios (Ctot,br/Ctot,pl) by using in vitro determined Fu,br and Fu,pl.
# Plasma protein binding and brain homogenate protein binding were measured by equilibrium dialysis in a HTDialysis plate. The dialysis membranes were soaked in ultrapure water for 60 minutes to separate strips, then in 20% ethanol for 20 minutes, finally in dialysis buffer for 20 minutes. The dialysis set up was assembled according to the manufacturer's instruction. Each cell received 150 μL of plasma or brain homogenate spiked with 1 mM of compound, and dialyzed against an equal volume of dialysis buffer (PBS). The dialysis plate was sealed and incubated in an incubator at 37° C. with 5% CO2 at 100 rpm for 6 hours. At the end of incubation, compound concentration was measured in both chambers by LC-MS/MS on a Triple Quad™ 5500 from AB Inc after separation on a XSelect Hss T3.2.5μ (2.1×30 mm) column. Free fraction (Fu) was calculated as (Peak Area Ratio buffer chamber/Peak Area Ratio plasma chamber). Kpuu=(AUCtot,br×Fu,br)/([…])
# The Kpu,u was then calculated upon correcting this kp value with mouse plasma protein binding and mouse brain homogenates binding.
# A Kpu,u value >0.3 is considered brain penetrant, and a Kpu,u value ≤0.3 is not considered brain penetrant. When the Kpu,u value is not determined, the Kp value may be useful as a metric of potential brain penetrance if the Kp value is >0.3.
# [4] = Human Hepatocyte Stability Assay; format: in vitro ADME; conditions: human hepatocytes, 37° C.; read-out: Hep (human) (t½ min)
# Method: as §1, §2, §3
# [5] = Solubility Protocol in Phosphate Buffered Saline (PBS); format: physicochemical; conditions: for solubility at 2 h: pH 7.4, aqueous buffer
# Method: (vi) Solubility Protocol in Phosphate Buffered Saline (PBS)
# The kinetic solubility of test compounds and control compounds was measured in commercial phosphate buffered saline (PBS), pH 7.4 (Wisent, Canada).
# Briefly, a stock solution (20 mM DMSO for controls, and 10 mM DMSO for test compounds) was combined with PBS buffer to reach a targeted concentration of 400 μM for controls and 200 μM for test compounds. The spiked-PBS mixtures were then agitated on a VX-2500 multi-tube vortexer (VWR) for 2 hours at room temperature (18° C.). Following agitation, the samples were filtered on a glass fiber filter (1 μm) and the eluates were diluted 400-fold with a mixture of acetonitrile:water (1:1). Solubility determination was then performed against one standard sample prepared in high organic content at the expected top concentration. The lower limit of quantification was arbitrarily set at 1 μM (400-fold dilution of the top concentration) for assay controls, and 0.5 μM for test compounds. On each experimental run, nicardipine and imipramine were assessed as reference compounds for low and high solubility, respectively. All samples were assessed in triplicate and analyzed by LC-MS/MS (using a CTC PAL autosampler, Thermo Accela UPLC, and a Thermo Quantum mass spectrometer) using electrospray ionization against standards prepared in the same matrix
# [6] = CDI, mouse, brain (whole brain homogenate) relative to plasma, po, 20 mg/kg
# [7] = CDI, mouse, brain (whole brain homogenate) relative to plasma, brain levels, mice
# [8] = CDI, mouse, brain (whole brain homogenate) relative to plasma, po, 20 mg/kg, Kp corrected with mouse plasma protein binding and mouse brain homogenates binding, 20 mpk PO, read-out: Kpu,u
# [9] = phosphate buffered saline (PBS), 18 °C, kinetic from dmso stock
IC50 [1],half-life [2],Compound,also measured
1.51 µM,–,"6-(1-(((1R,5S,8s)-3-oxabicyclo[3.2.1]octan-8-yl)amino)pyrido[3,4-d]pyridazin-4-yl)-2-fluoro-3-methylphenol [Compound 15A-regioisomer]",–
5 µM,–,"Oc1cc(Cl)ccc1-c1nnc(N[C@H]2C[C@@H]3CC[C@H]2O3)c2cnccc12 (single isomer, unassigned) [Compound 3B*]",–
0.27 µM,1.67 h,"Oc1cc(Cl)ccc1-c1nnc(N[C@@H]2C[C@H]3CC[C@@H]2O3)c2cnccc12 (single isomer, unassigned) [Compound 3C*]",–
2.42 µM,0.167 h,"Oc1cc(Cl)ccc1-c1nnc(N[C@H]2C[C@H]3CC[C@@H]2O3)c2cnccc12 (single isomer, unassigned) [Compound 3D*]",–
0.23 µM,0.95 h,"Cc1ccc(-c2nnc(N[C@@H]3C[C@@H]4CC[C@H]3O4)c3cnccc23)c(O)c1 (single isomer, unassigned) [Compound 7A]","Kp at 24 h [3, 6]: 0.61; half-life [4]: > 8 h"
5.3 µM,–,"Cc1ccc(-c2nnc(N[C@H]3C[C@@H]4CC[C@H]3O4)c3cnccc23)c(O)c1 (single isomer, unassigned) [Compound 7B]",–
0.11 µM,0.35 h,"Cc1ccc(-c2nnc(N[C@@H]3C[C@H]4CC[C@@H]3O4)c3cnccc23)c(O)c1 (single isomer, unassigned) [Compound 7C]","Kp [3, 7]: 0.61; half-life [4]: 4.67 h"
4.66 µM,–,"Cc1ccc(-c2nnc(N[C@H]3C[C@H]4CC[C@@H]3O4)c3cnccc23)c(O)c1 (single isomer, unassigned) [Compound 7D]",–
0.27 µM,4.17 h,"Oc1cc(Cl)ccc1-c1nnc(N[C@@H]2C[C@@H]3C[C@H]2CO3)c2cnccc12 (single isomer, unassigned) [Compound 8A]",–
0.59 µM,4.67 h,"Oc1cc(Cl)ccc1-c1nnc(N[C@H]2C[C@H]3C[C@@H]2CO3)c2cnccc12 (single isomer, unassigned) [Compound 8B]","Kp [3, 7]: 0.35; Kpu,u [3, 8]: 0.1; Kp at 24 h [3, 6]: 0.35; Kpu,u ([3]; brain levels, unbound, mice): — 0.10; solubility kinetic at 2 h ([5]; phosphate buffered saline (PBS), 18 °C, aqueous buffer, kinetic from dmso stock, kinetic solubility, PBS pH 7.4, 2 hours at room temperature): > 300 µM; solubility at 2 h [5, 9]: > 300 µM"
> 50 µM,–,"Oc1cc(Cl)ccc1-c1nnc(N[C@]23CCC(C2)OC3)c2cnccc12 (single isomer, unassigned) [Compound 9A]",–
> 50 µM,–,"Oc1cc(Cl)ccc1-c1nnc(N[C@@]23CCC(C2)OC3)c2cnccc12 (single isomer, unassigned) [Compound 9B]",–
6.76 µM,–,"Oc1cc(C(F)(F)F)ccc1-c1nnc(N[C@H]2C[C@@H]3CC[C@H]2O3)c2cnccc12 (single isomer, unassigned) [Compound 10B*]",–
0.81 µM,2.33 h,"Oc1cc(C(F)(F)F)ccc1-c1nnc(N[C@@H]2C[C@H]3CC[C@@H]2O3)c2cnccc12 (single isomer, unassigned) [Compound 10C*]","Kp [3, 7]: 0.48; Kpu,u [3, 8]: 0.21; Kp at 24 h [3, 6]: 0.48; Kpu,u ([3]; brain levels, unbound, mice): 0.21; half-life [4]: 7.83 h"
5.34 µM,8 h,"Oc1cc(C(F)(F)F)ccc1-c1nnc(N[C@H]2C[C@H]3CC[C@@H]2O3)c2cnccc12 (single isomer, unassigned) [Compound 10D*]",half-life [4]: > 8 h
1.39 µM,–,"Oc1cc(Cl)ccc1-c1nnc(N[C@H]2C[C@H]3CC[C@@H](C2)O3)c2cnccc12 [Compound 1A*-r, 2-(4-(((1R,3r,5S)-8-oxabicyclo[3.2.1]octan-3-yl)amino)pyrido[3,4-d]pyridazin-1-yl)-5-chlorophenol]","Kp [3, 7]: 0.047; Kp at 24 h [3, 6]: 0.047; Sol (PBS) ([5]; kinetic solubility, PBS pH 7.4, 2 hours at room temperature): 3.5 µM; solubility at 2 h [5, 9]: 3.5 µM"
4.12 µM,3.67 h,"Cc1ccc(-c2nnc(N[C@@H]3C[C@H]4CC[C@@H](C3)O4)c3cnccc23)c(O)c1 [Compound 2B*-r, 2-(4-(((1R,3s,5S)-8-oxabicyclo[3.2.1]octan-3-yl)amino)pyrido[3,4-d]pyridazin-1-yl)-5-methylphenol]",–
2 µM,3.33 h,"Cc1ccc(-c2nnc(N[C@H]3C[C@H]4CC[C@@H](C3)O4)c3cnccc23)c(O)c1F [Compound 12A*-r, 6-(4-(((1R,3r,5S)-8-oxabicyclo[3.2.1]octan-3-yl)amino)pyrido[3,4-d]pyridazin-1-yl)-2-fluoro-3-methylphenol]",–
0.48 µM,–,"Cc1cc(O)c(-c2nnc(N[C@H]3[C@@H]4CC[C@H]3COC4)c3cnccc23)c(F)c1 [Compound 16A, 2-(4-(((1R,5S,8s)-3-oxabicyclo[3.2.1]octan-8-yl)amino)pyrido[3,4-d]pyridazin-1-yl)-3-fluoro-5-methylphenol]",–
0.31 µM,–,"Cc1cc(C)c(-c2nnc(N[C@H]3[C@@H]4CC[C@H]3COC4)c3cnccc23)c(O)c1 [Compound 17A, 2-(4-(((1R,5S,8s)-3-oxabicyclo[3.2.1]octan-8-yl)amino)pyrido[3,4-d]pyridazin-1-yl)-3,5-dimethylphenol]",–
0.32 µM,–,"N#Cc1ccc(-c2nnc(N[C@H]3[C@@H]4CC[C@H]3COC4)c3cnccc23)c(O)c1 [Compound 18A, 4-(4-(((1R,5S,8s)-3-oxabicyclo[3.2.1]octan-8-yl)amino)pyrido[3,4-d]pyridazin-1-yl)-3-hydroxybenzonitrile]",–
